Data from ChEMBL document CHEMBL4257450, “The synthesis, biological evaluation and structure-activity relationship of 2-phenylaminomethylene-cyclohexane-1,3-diones as specific anti-tuberculosis agents” (Medchemcomm, 2017).
Converted amounts (≈) assume the structure as drawn.

What was measured:
[1] = test system: Mycobacterium tuberculosis; assay: Antimycobacterial activity against Mycobacterium tuberculosis H37Rv after 14 days by broth dilution method; type: functional; conditions: 336 h
[2] = Growth inhibition of HEK293 cells at 1 to 40 uM by MTT assay relative to control; type: cell-based; conditions: human, read-out: GI
[3] = Growth inhibition of human HCT116 cells at 1 to 40 uM by MTT assay relative to control; type: cell-based, HCT-116; conditions: read-out: GI
[4] = Growth inhibition of HEK293 cells at 50 uM by MTT assay relative to control; type: cell-based; conditions: human, read-out: GI
[5] = Growth inhibition of human PC3 cells at 50 uM by MTT assay relative to control; type: cell-based, PC-3; conditions: read-out: GI
[6] = Growth inhibition of human MCF7 cells at 50 uM by MTT assay relative to control; type: cell-based; conditions: read-out: GI
[7] = Growth inhibition of human MCF7 cells at 1 to 40 uM by MTT assay relative to control; type: cell-based; conditions: read-out: GI
[8] = Growth inhibition of human HCT116 cells at 50 uM by MTT assay relative to control; type: cell-based, HCT-116; conditions: read-out: GI
[9] = Growth inhibition of human PC3 cells at 1 to 40 uM by MTT assay relative to control; type: cell-based, PC-3; conditions: read-out: GI
[10] = test system: Mycolicibacterium smegmatis; assay: Antimycobacterial activity against Mycobacterium smegmatis ATCC 607 after 24 hrs; type: functional; conditions: ATCC 607, 24 h
[11] = test system: Pseudomonas aeruginosa; assay: Antibacterial activity against Pseudomonas aeruginosa ATCC 10145 after 24 hrs; type: functional; conditions: ATCC 10145, 24 h
[12] = test system: Enterococcus faecalis; assay: Antibacterial activity against Enterococcus faecalis ATCC 51299 after 24 hrs; type: functional; conditions: ATCC 51299, 24 h
[13] = test system: Bacillus subtilis; assay: Antibacterial activity against Bacillus subtilis ATCC 11774 after 24 hrs; type: functional; conditions: ATCC 11774, 24 h
[14] = test system: Micrococcus luteus; assay: Antibacterial activity against Micrococcus luteus ATCC 10240 after 24 hrs; type: functional; conditions: ATCC 10240, 24 h
[15] = test system: Klebsiella pneumoniae; assay: Antibacterial activity against Klebsiella pneumoniae ATCC BAA-2146 after 24 hrs; type: functional; conditions: ATCC BAA-2146, 24 h
[16] = test system: Staphylococcus aureus; assay: Antibacterial activity against Staphylococcus aureus ATCC 25923 after 24 hrs; type: functional; conditions: ATCC 25923, 24 h
[17] = test system: Escherichia coli; assay: Antibacterial activity against Escherichia coli 10536 after 24 hrs; type: functional; conditions: Escherichia coli, 10536, 24 h
[18] = test system: Staphylococcus epidermidis; assay: Antibacterial activity against Staphylococcus epidermidis ATCC 12228 after 24 hrs; type: functional; conditions: ATCC 12228, 24 h
[19] = test system: HEK293; assay: Growth inhibition of HEK293 cells up to 80 uM by MTT assay relative to control; type: cell-based; conditions: human
[20] = test system: Mycobacterium tuberculosis; assay: Antimycobacterial activity against Mycobacterium tuberculosis; type: functional
[21] = test system: Mycolicibacterium smegmatis; assay: Antimycobacterial activity against Mycobacterium smegmatis; type: functional
[22] = Selectivity ratio of MIC for Mycobacterium smegmatis to MIC for Mycobacterium tuberculosis; type: functional

CC1(C)CC(=O)C(=CNc2ccc([N+](=O)[O-])cc2[N+](=O)[O-])C(=O)C1
MIC [1]: > 80 µg/mL

CC1(C)CC(=O)C(=CNc2ccccc2C(F)(F)F)C(=O)C1
MIC [1]: > 80 µg/mL

CC1(C)CC(=O)C(=CSc2ccccc2O)C(=O)C1
MIC [1]: 40 to 80 µg/mL (≈ 145 to 289 µM)

CC1(C)CC(=O)C(=CNc2ccccc2[N+](=O)[O-])C(=O)C1
MIC [1]: > 80 µg/mL

O=C1CC(c2ccco2)CC(=O)C1=CNc1ccccc1O (stereo not drawn)
inhibition at up to 40 µM [2]: < 20% | inhibition at up to 40 µM [3]: < 20% | inhibition at 50 µM [4]: 46.4% | inhibition at 50 µM [5]: 26.1% | inhibition at 50 µM [6]: 2.92% | inhibition at up to 40 µM [7]: < 20% | MIC [1]: 10 to 20 µg/mL (≈ 33.6 to 67.3 µM) | inhibition at 50 µM [8]: 42.8% | inhibition at up to 40 µM [9]: < 20%

C[C@H]1COc2c(N3CCN(C)CC3)c(F)cc3c(=O)c(C(=O)O)cn1c23.C[C@H]1COc2c(N3CCN(C)CC3)c(F)cc3c(=O)c(C(=O)O)cn1c23.O [LEVOFLOXACIN]
MIC [10]: 0.156 µg/mL | MIC [11]: 0.312 to 0.625 µg/mL | MIC [12]: 0.156 µg/mL | MIC [13]: 0.39 µg/mL | MIC [14]: 0.078 µg/mL | MIC [15]: 0.625 to 1.25 µg/mL | MIC [16]: 0.078 to 0.156 µg/mL | MIC [17]: 0.078 µg/mL | MIC [18]: 0.039 to 0.078 µg/mL | MIC [1]: 2.5 µg/mL

CC1(C)CC(=O)C(=CNCc2ccc(F)cc2)C(=O)C1
MIC [1]: > 80 µg/mL

CC1(C)CC(=O)C(=CNc2ccccc2O)C(=O)C1
MIC [10]: > 80 µg/mL | MIC [11]: > 128 µg/mL | MIC [12]: > 128 µg/mL | inhibition at up to 40 µM [2]: < 20% | growth inhibition (GI) [19]: < 20% | MIC [13]: > 128 µg/mL | inhibition at up to 40 µM [3]: < 20% | inhibition at 50 µM [4]: 9.03% | inhibition at 50 µM [5]: 10.1% | inhibition at 50 µM [6]: 15.1% | MIC [14]: 128 µg/mL (≈ 494 µM) | inhibition at up to 40 µM [7]: < 20% | MIC [15]: > 128 µg/mL | MIC [16]: > 128 µg/mL | MIC [17]: 32 to 64 µg/mL (≈ 123 to 247 µM) | MIC [18]: > 128 µg/mL | MIC [1]: 2.5 µg/mL (≈ 9.64 µM) | inhibition at 50 µM [8]: 20.2% | inhibition at up to 40 µM [9]: < 20%

CC1(C)CC(=O)C(=CNc2ccc(Br)cc2)C(=O)C1
MIC [1]: > 80 µg/mL

O=C1CCCC(=O)C1=CNc1ccccc1O
inhibition at up to 40 µM [2]: < 20% | inhibition at up to 40 µM [3]: < 20% | inhibition at 50 µM [4]: 28.3% | inhibition at 50 µM [5]: 29.5% | inhibition at 50 µM [6]: 14.5% | inhibition at up to 40 µM [7]: < 20% | MIC [1]: 5 to 10 µg/mL (≈ 21.6 to 43.2 µM) | inhibition at 50 µM [8]: 10.6% | inhibition at up to 40 µM [9]: < 20%

CCCCCNC=C1C(=O)CC(C)(C)CC1=O
MIC [1]: > 80 µg/mL

CN[C@@H]1[C@H](O[C@H]2[C@H](O[C@H]3[C@H](O)[C@@H](O)[C@H](N=C(N)N)[C@@H](O)[C@@H]3N=C(N)N)O[C@@H](C)[C@]2(O)C=O)O[C@@H](CO)[C@H](O)[C@H]1O [STREPTOMYCIN]
MIC [1]: 1.56 µg/mL (≈ 2.68 µM)

CO[C@H]1/C=C/O[C@@]2(C)Oc3c(C)c(O)c4c(O)c(c(/C=N/N5CCN(C)CC5)c(O)c4c3C2=O)NC(=O)/C(C)=C\C=C\[C@H](C)[C@H](O)[C@@H](C)[C@@H](O)[C@@H](C)[C@H](OC(C)=O)[C@@H]1C [RIFAMPIN]
MIC [20]: 0.2 µg/mL (≈ 0.243 µM) | MIC [21]: 100 µg/mL (≈ 122 µM) | Selectivity ratio [22]: 500 to 1000 | MIC [1]: 0.078 µg/mL (≈ 0.0948 µM)

CCCN(C=C1C(=O)CC(C)(C)CC1=O)CCC
MIC [1]: > 80 µg/mL

Cc1ccc(NC=C2C(=O)CC(C)(C)CC2=O)c(C)c1C
MIC [1]: > 80 µg/mL

CC1(C)CC(=O)C(=CNc2ccc([N+](=O)[O-])cc2Cl)C(=O)C1
MIC [1]: > 80 µg/mL

CC1(C)CC(=O)C(=CNc2cccc3ccccc23)C(=O)C1
MIC [1]: > 80 µg/mL

CC1(C)CC(=O)C(=CNc2cccc(C(F)(F)F)c2)C(=O)C1
MIC [1]: > 80 µg/mL

CC[C@@H](CO)NCCN[C@@H](CC)CO [ETHAMBUTOL]
MIC [1]: 1.25 µg/mL (≈ 6.12 µM)

CC1(C)CCC(=O)C(=CNc2ccccc2O)C1=O (mixture of isomers)
inhibition at up to 40 µM [2]: < 20% | inhibition at up to 40 µM [3]: < 20% | inhibition at 50 µM [4]: 64.1% | inhibition at 50 µM [5]: 41.2% | inhibition at up to 40 µM [7]: < 20% | MIC [1]: 10 to 20 µg/mL | inhibition at 50 µM [8]: 60.7% | inhibition at up to 40 µM [9]: < 20%

CC1(C)CC(=O)C(=CNc2ccc(F)cc2F)C(=O)C1
MIC [1]: > 80 µg/mL

O=C1CC(c2ccc(Cl)cc2)CC(=O)C1=CNc1ccccc1O (stereo not drawn)
inhibition at up to 40 µM [2]: < 20% | inhibition at up to 40 µM [3]: < 20% | inhibition at 50 µM [4]: 44% | inhibition at 50 µM [5]: 18.6% | inhibition at 50 µM [6]: 23.4% | inhibition at up to 40 µM [7]: < 20% | MIC [1]: 20 µg/mL (≈ 58.5 µM) | inhibition at 50 µM [8]: 28.6% | inhibition at up to 40 µM [9]: < 20%

CC1(C)CC(=O)C(=CNc2ccc(Cl)cc2)C(=O)C1
MIC [1]: > 80 µg/mL

O=C1CCC(=O)C1=CNc1ccccc1O
MIC [1]: > 80 µg/mL

CC1(C)CC(=O)C(=CNc2cccc([N+](=O)[O-])c2)C(=O)C1
MIC [1]: > 80 µg/mL

CC1CC(=O)C(=CNc2ccccc2O)C(=O)C1 (stereo not drawn)
inhibition at up to 40 µM [2]: < 20% | inhibition at up to 40 µM [3]: < 20% | inhibition at 50 µM [4]: 6.08% | inhibition at 50 µM [5]: 8.2% | inhibition at 50 µM [6]: 16.6% | inhibition at up to 40 µM [7]: < 20% | MIC [1]: 20 µg/mL (≈ 81.5 µM) | inhibition at 50 µM [8]: 35.7% | inhibition at up to 40 µM [9]: < 20%

CC1(C)CC(=O)C(=CNc2ccc([N+](=O)[O-])cc2F)C(=O)C1
MIC [1]: 80 µg/mL (≈ 261 µM)

O=C1CC(c2ccccc2)CC(=O)C1=CNc1ccccc1O (stereo not drawn)
inhibition at up to 40 µM [2]: < 20% | inhibition at up to 40 µM [3]: < 20% | inhibition at 50 µM [4]: 52.8% | inhibition at 50 µM [5]: 20.4% | inhibition at 50 µM [6]: 16.5% | inhibition at up to 40 µM [7]: < 20% | MIC [1]: 5 to 10 µg/mL (≈ 16.3 to 32.5 µM) | inhibition at up to 40 µM [9]: < 20%

CC1(C)CC(=O)C(=CNc2ccc([N+](=O)[O-])cc2)C(=O)C1
MIC [1]: > 80 µg/mL

CC1(C)CC(=O)C(=CNc2cccc(Br)c2)C(=O)C1
MIC [1]: > 80 µg/mL

O=C1CCCC(=O)C1=CNc1ccc([N+](=O)[O-])cc1F
MIC [1]: 80 µg/mL (≈ 288 µM)

CNC=C1C(=O)CC(C)(C)CC1=O
MIC [1]: > 80 µg/mL

CC1(C)CC(=O)C(=CNc2cc(Cl)c(Cl)cc2Cl)C(=O)C1
MIC [1]: > 80 µg/mL

O=C1CCC(=O)C1=CNc1ccc([N+](=O)[O-])cc1F
MIC [1]: > 80 µg/mL

Cc1ccc(NC=C2C(=O)CC(C)(C)CC2=O)cc1C
MIC [1]: > 80 µg/mL

CCCCNC=C1C(=O)CC(C)(C)CC1=O
MIC [1]: > 80 µg/mL

NNC(=O)c1ccncc1 [ISONIAZID]
MIC [20]: 0.02 µg/mL (≈ 0.146 µM) | MIC [21]: 25 µg/mL (≈ 182 µM) | Selectivity ratio [22]: 500 to 1000 | MIC [1]: 0.313 µg/mL (≈ 2.28 µM)

O=C1CCCC(=O)C1=CNc1ccc([N+](=O)[O-])cc1Cl
MIC [1]: 40 to 80 µg/mL (≈ 136 to 271 µM)

O=C1CCC(=O)C1=CNc1ccc([N+](=O)[O-])cc1Cl
MIC [1]: > 80 µg/mL

Cc1ccc(NC=C2C(=O)CC(C)(C)CC2=O)c(C)c1
MIC [1]: > 80 µg/mL

CC1(C)CC(=O)C(=CNc2ccccc2)C(=O)C1
MIC [1]: > 80 µg/mL

CCCNC=C1C(=O)CC(C)(C)CC1=O
MIC [1]: > 80 µg/mL

O=C1CCCC(=O)C1=CSc1ccccc1O
MIC [1]: 40 to 80 µg/mL (≈ 161 to 322 µM)

CC1(C)CC(=O)C(=CNc2ccccc2Br)C(=O)C1
MIC [1]: > 80 µg/mL
